The structures appear in SMILES notation. Values joined by “and” are separate entries in the source; they are usually repeats but may differ in a detail not shown here. Equal values may be shown once.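 Where inhibition never reached the appropriate level, the endpoint shown equals the highest concentration tested. Otherwise, values were interpolated linearly from a five-concentration, 48-hour dose response in 96-well plates. GI50 marks 50% less growth. The concentration for full growth arrest is given as TGI.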 Where only a bound is given, the exact number is not on record here.

These results are taken from PubChem BioAssay (NCI).

Test systems include NCI-H460 lung; CCRF-CEM leukemia; HOP-62 NSCLC; HCT-116 colon; OVCAR-5 ovarian; SR leukemia; HL-60(TB) leukemia; NCI-H226 lung; RXF 393 renal; HCT-15 colon.
Common to all, as to assay: inhibition of tumour cell growth, NCI panel, 48 h

As to `CC(C)(C)C1=Cc2cc3cc(C(C)(C)C)[nH]c(=O)c3cc2S(=O)(=O)N1`, the TGI in the assay with NCI-H460 lung is above 100 µM; in the assay on CCRF-CEM leukemia, 56.9 µM; in the assay on HOP-62 NSCLC it was 63 µM; in the assay with HCT-116 colon it was 42.8 µM; with OVCAR-5 ovarian, 92.5 µM; in the assay on SR leukemia, 61.5 µM. Besides, the TGI turned out to be 43.1 µM with HL-60(TB) leukemia and 47.7 µM in the assay with NCI-H226 lung.

As for `CC(C)(C)N=c1n(C(C)(C)C)oc(=O)n1C(C)(C)C`, the TGI in the assay with NCI-H460 lung, in the assay on CCRF-CEM leukemia, with HOP-62 NSCLC, in the assay with HCT-116 colon, in the assay with RXF 393 renal and with HCT-15 colon was above 100 µM throughout. Besides, the TGI in the assay with OVCAR-5 ovarian, in the assay on SR leukemia, with HL-60(TB) leukemia and with NCI-H226 lung was above 100 µM in each case.

`CN(C)c1ccc(-c2c(C#N)c(S)n(NS(=O)(=O)c3ccccc3)c(=O)c2C#N)cc1`: the TGI is above 100 µM in the assay with CCRF-CEM leukemia; above 100 µM with HCT-116 colon; above 100 µM with RXF 393 renal; 57.7 µM in the assay with HCT-15 colon; above 100 µM in the assay on OVCAR-5 ovarian; above 100 µM in the assay on SR leukemia. This molecule also showed a TGI in the assay on HL-60(TB) leukemia of 85.2 µM.

As to `CN(C)c1nc(=NCc2ccncc2)ss1`, the TGI in the assay on NCI-H460 lung was above 100 µM; with CCRF-CEM leukemia, 49.6 µM; with HOP-62 NSCLC, above 100 µM; in the assay with HCT-116 colon, 40.7 µM; in the assay on RXF 393 renal it was 92.7 µM; in the assay with HCT-15 colon, above 100 µM. Also, the TGI was 54.4 µM in the assay with OVCAR-5 ovarian, 44.6 µM with SR leukemia, 47 µM in the assay with HL-60(TB) leukemia and above 100 µM with NCI-H226 lung. The GI50 was above 100 µM in the assay with HOP-62 NSCLC, 19 µM in the assay with SR leukemia and 14.2 µM in the assay on HL-60(TB) leukemia.

Turning to `CC(C)=CCc1c2c(c3occ(-c4ccc(O)c(O)c4)c(=O)c3c1O)C=CC(C)(C)O2`, the TGI with NCI-H460 lung was determined as 3.21 µM; in the assay with CCRF-CEM leukemia, 2.71 µM; with HOP-62 NSCLC, 4.4 µM; with HCT-116 colon, 4.29 µM; in the assay on RXF 393 renal it was 4.14 µM; with HCT-15 colon, 5.35 µM. Further, the TGI was 21.1 µM with OVCAR-5 ovarian, 2.12 µM in the assay with SR leukemia, 0.246 µM in the assay with HL-60(TB) leukemia and 34.6 µM with NCI-H226 lung.

Take `CC(=O)OC[C@]1(C(=O)C(O)c2ccoc2)[C@H](C)CC[C@@]23COC(=O)C2=CCC[C@@H]31` (some centres undefined): the TGI with NCI-H460 lung, in the assay on CCRF-CEM leukemia, in the assay on HCT-116 colon, in the assay on RXF 393 renal, in the assay on HCT-15 colon and with OVCAR-5 ovarian was above 10 µM each time. In addition, the TGI with SR leukemia, in the assay on HL-60(TB) leukemia and in the assay with NCI-H226 lung was above 10 µM in each case.

In the case of `NC(=O)C(=O)N/N=C1/c2ccccc2CC1C1(O)C(=O)Nc2c(Cl)cc(Cl)cc21` (centres undefined), the TGI with NCI-H460 lung, in the assay with CCRF-CEM leukemia, with HOP-62 NSCLC, in the assay with HCT-116 colon, with RXF 393 renal and in the assay with HCT-15 colon was above 100 µM throughout. For the same molecule, the TGI in the assay on OVCAR-5 ovarian, in the assay with SR leukemia, with HL-60(TB) leukemia and in the assay on NCI-H226 lung was above 100 µM throughout.

`N#Cc1nc(-c2cc([N+](=O)[O-])cc([N+](=O)[O-])c2)oc1N`: the TGI with NCI-H460 lung, in the assay on CCRF-CEM leukemia, in the assay on HOP-62 NSCLC, in the assay with HCT-116 colon, with RXF 393 renal and with HCT-15 colon was above 10 µM throughout. Moreover, the TGI in the assay on SR leukemia, in the assay on HL-60(TB) leukemia and in the assay on NCI-H226 lung was above 10 µM each time.

`COc1cc2c(cc1OCCCCOc1cc(-c3ccc(F)cc3)nc(C)n1)N=C[C@@H]1CCCN1C2=O`: the TGI in the assay on CCRF-CEM leukemia stood at 3.17 µM; with HOP-62 NSCLC, 3.43 µM; with HCT-116 colon it was 8.59 µM; in the assay on RXF 393 renal, 3.22 µM; in the assay on HCT-15 colon, 2.09 µM; in the assay with OVCAR-5 ovarian it was 10.9 µM. The values for the TGI in the assay on SR leukemia, in the assay on HL-60(TB) leukemia and with NCI-H226 lung were 0.363 µM, 28.7 µM and 4.71 µM, respectively.

For the molecule `CC1(C)O[C@@H]2COC(=O)[C@@H]2O1`, the TGI in the assay with NCI-H460 lung, in the assay with CCRF-CEM leukemia, in the assay on HCT-116 colon, in the assay with RXF 393 renal, in the assay on HCT-15 colon and in the assay on OVCAR-5 ovarian was above 100 µM each time. Besides, the TGI with SR leukemia, with HL-60(TB) leukemia and with NCI-H226 lung was above 100 µM each time.

For `C=C1C(=O)OC2/C=C(\CO)C(OC(C)=O)CC(O)/C(C)=C/C(OC(=O)C(C)CC)C12` (centres undefined), the TGI is 63.6 µM and > 100 µM with NCI-H460 lung; 22.7 µM and 69 µM with CCRF-CEM leukemia; above 100 µM with HOP-62 NSCLC; 27.6 µM and 42.5 µM in the assay on HCT-116 colon; 40 µM and 49.8 µM with RXF 393 renal; above 100 µM with HCT-15 colon. Besides, the TGI is > 92.8 µM and 32.2 µM in the assay with OVCAR-5 ovarian; 39.2 µM with SR leukemia; 39.6 µM and 30.9 µM with HL-60(TB) leukemia; 59.6 µM in the assay with NCI-H226 lung. Further, the GI50 in the assay on CCRF-CEM leukemia was 3.76 µM and 11.4 µM; in the assay on OVCAR-5 ovarian it was 38.9 µM and 17 µM.

On to `C/C(=N/NC(N)=S)c1ccc2ccccc2c1`, for which the TGI is 78.1 µM in the assay on NCI-H460 lung; above 100 µM in the assay on CCRF-CEM leukemia; above 100 µM in the assay on HOP-62 NSCLC; 78.4 µM with HCT-116 colon; 81.8 µM in the assay on RXF 393 renal; above 100 µM in the assay with HCT-15 colon. In addition, the TGI in the assay with OVCAR-5 ovarian was 86 µM; in the assay with SR leukemia it was above 100 µM; in the assay on HL-60(TB) leukemia, above 100 µM; in the assay with NCI-H226 lung, above 100 µM.

For `CCOP(=O)(OCC)C1C(CO)OC(n2ccc(=O)[nH]c2=O)C1O` (centres undefined), the TGI with NCI-H460 lung, in the assay with HOP-62 NSCLC, with HCT-116 colon, with RXF 393 renal, with HCT-15 colon and in the assay with SR leukemia was above 100 µM each time. Also, the TGI in the assay with HL-60(TB) leukemia and in the assay on NCI-H226 lung was above 100 µM throughout.

Turning to `CCC1=CCC23C(=O)C=CC(=O)C2(C1)C(=O)c1cccc(OC)c1C3=O` (centres undefined), the TGI was 62.5 µM in the assay with NCI-H460 lung; 28.1 µM in the assay with CCRF-CEM leukemia; 42.9 µM in the assay on HOP-62 NSCLC; 30.4 µM with HCT-116 colon; 21 µM in the assay on RXF 393 renal; 37 µM in the assay on HCT-15 colon. The TGI with OVCAR-5 ovarian is 31.8 µM; in the assay on SR leukemia, 41.4 µM; in the assay on HL-60(TB) leukemia it was 7.36 µM; in the assay with NCI-H226 lung, 67.2 µM.
